One data set has as its system B16 melanoma 4A5 cells. Briefly: Melanin production inhibitory effect (theophylline-induced melanin production). The format is cell-based, mouse. The following applies: melanin production inhibition rate, sample at a concentration of 10 mM or less, 3 days culture, theophylline 1 mmol/L, N=4. Put shortly: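 Mouse B16 4A5 cells cultured 24 h in D-MEM/10% FBS, then 3 days with 1 mmol/L theophylline (final) plus sample at 10 mM or less. Melanin measured by alkali solubilization (1 mol/L NaOH, 60° C, 30 min, A405) against synthetic melanin standard, normalized to BCA protein. Inhibition rate relative to normal and control groups, scored as graded ranges; N=4.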

A short description of data set [1]: Stability test (residual rate by HPLC, odor, coloring). In kind it is physicochemical. As to conditions: 1% aqueous solution; for Coloring / Odor: total score of 10 panelists. Put shortly: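 A 1% aqueous solution of each test sample was brought to pH 6 with dilute potassium hydroxide aqueous solution, sealed in a 50 mL screw tube, and stored. Residual rate was calculated from HPLC peak area on a Shimadzu liquid chromatograph. Ten panelists scored odor and coloring on a 1–3 scale each, and the summed scores were classified.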

Data set [2] has as its system Normal human epidermal keratinocytes. Nature of the data set: Antioxidant test (ROS production after H2O2 treatment, DCFHDA probe). The format is cell-based. The following applies: sample at a concentration of 10 mM or less, 24 h culture, 0.2 mM H2O2 for 2 hours, ROS per unit protein, N=4. Here is the method: Normal human epidermal keratinocytes were seeded in a 96-well plate using KG2 medium to a cell density of 2.0×10^4 cells/well. After 24 hours of pre-incubation, samples adjusted to a predetermined concentration with KG2 medium were added to each well. After 24 hours of culture and removal of the medium, the wells were washed with HBSS(−) and the ROS-reactive fluorescent probe DCFHDA was allowed to incorporate for 30 minutes. The wells were washed again with HBSS(—), treated with 0.2 mM H2O2, and cultured for 2 hours. The fluorescence intensity was measured, and the amount of ROS produced per unit protein was calculated by dividing the fluorescence intensity by the amount of protein quantified by the BCA method.
The antioxidant effect when the sample was measured at a concentration of 10 mM or less was expressed as follows. The measurement was performed with N=4. • <20%: ± • 20-40%: + • 40-70%: ++ • 70-100%: +++

For data set [3], the system named is Normal human dermal fibroblasts. Briefly: Collagen production promoting effect (ELISA of supernatant). In kind it is cell-based. As to conditions: amount of collagen produced, % with control group taken as 100%; sample at 10 mmol/L or less, 48 hours, N=3. In short, it runs like this: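 Fibroblasts in D-MEM with 5% FBS were pre-incubated 24 h, then exposed to samples for 48 h. Free collagen in supernatant quantified by ELISA (N=3), expressed as % of control (control = 100%) at ≤10 mmol/L, scored ± (<100%), + (100-120%), ++ (120%).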

In data set [4] the test system is Normal human dermal fibroblasts (NHDF). Briefly: Hyaluronic acid production promoting effect (ELISA of supernatant). As to conditions: amount of hyaluronic acid produced, % with control group taken as 100%; sample at 10 mmol/L or less, 48 hours, N=3. The format is cell-based. Put shortly:
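NHDF pre-incubated 24 h, then exposed to samples at 10 mmol/L or less in serum-free D-MEM for 48 h. Supernatant hyaluronic acid quantified by ELISA, N=3, expressed as % of control (100%) and scored ± (<100%), + (100-120%), ++ (120-150%), +++ (150%).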

[5] abbreviates: pH 6, stored at 50° C., four weeks later.
The mark [6] stands for this setting: pH 6, stored at 50° C., two weeks later.

Take `CC(C)(O)COC1=C(O)[C@@H]([C@@H](O)CO)OC1=O` [Synthesis Example 1, 2-O-(2-hydroxyisobutyl) ascorbic acid]: in the data set on B16 melanoma 4A5 cells, the “Melanin production inhibition effect” value was “++ (40-60%: ++)”. Further, in data set [1] (pH 6, 50° C., initial), the Residual rate entry is given as “⊚ (⊚: 90% or more)”, the Coloring result was “◯ (◯: Total score of 10 panelists is 25 or more)” and the Odor entry is reported as “◯ (◯: Total score of 10 panelists is 20-24)”. In addition, in data set [1] (setting [5]), the Residual rate entry is recorded as “⊚ (⊚: 90% or more)”, the Coloring result was “◯ (◯: Total score of 10 panelists is 25 or more)” and the Odor entry is “◯ (◯: Total score of 10 panelists is 20-24)”. For the same molecule, in data set [1] (setting [6]), the Residual rate result was “⊚ (⊚: 90% or more)”, the Coloring entry is on record as “◯ (◯: Total score of 10 panelists is 25 or more)” and the Odor entry is given as “◯ (◯: Total score of 10 panelists is 20-24)”. Also, the “Antioxidant Effects” value in data set [2] is on record as “++ (40-70%: ++)”. The “Collagen production promoting effect” value in data set [3] is listed as “++ (120%: ++)”. Besides, in data set [4], the “Hyaluronic acid production promoting effect” value was “+ (100-120%: +)”.

In the case of `CC(C)(O)COC1=C(O)C(=O)O[C@@H]1[C@@H](O)CO` [Synthesis Example 2, 3-O-(2-hydroxyisobutyl) ascorbic acid], the “Melanin production inhibition effect” value in the data set on B16 melanoma 4A5 cells was “+ (20-40%: +)”. Also, in data set [1] (pH 6, 50° C., initial), the Residual rate entry is “⊚ (⊚: 90% or more)”, the Coloring entry is given as “◯ (◯: Total score of 10 panelists is 25 or more)” and the Odor entry was “◯ (◯: Total score of 10 panelists is 20-24)”. Moreover, in data set [1] (setting [5]), the Residual rate entry is on record as “⊚ (⊚: 90% or more)”, the Coloring result was “◯ (◯: Total score of 10 panelists is 25 or more)” and the Odor result is “◯ (◯: Total score of 10 panelists is 20-24)”. In addition, in data set [1] (setting [6]), the Residual rate entry is listed as “⊚ (⊚: 90% or more)”, the Coloring entry is given as “◯ (◯: Total score of 10 panelists is 25 or more)” and the Odor result is listed as “◯ (◯: Total score of 10 panelists is 20-24)”. In data set [2], the “Antioxidant Effects” value is reported as “++ (40-70%: ++)”. Further, the “Collagen production promoting effect” value in data set [3] was “+ (100-120%: +)”. For the same molecule, the “Hyaluronic acid production promoting effect” value in data set [4] is recorded as “+ (100-120%: +)”.

The values above are taken from patent US20260001853A1, “ASCORBIC ACID DERIVATIVE OR SALT THEREOF, AND COSMETIC THEREOF” (SEIWA KASEI COMPANY, LIMITED, priority 2022, published 2026).
